Columns and labels:
[1] = biological target: non-canonical CBRs expressed in HeLa; test: Homologous receptor binding, HeLa; design: species or system human; conditions: homologous competition with [^3H]WIN-55,212-2 (1 nM), read-out: affinity (KD)
Procedure: (§1) All binding reactions were conducted in triplicate, in a final volume of 1 mL, and, following mixing, were incubated for 20 min in a 37 °C water bath to achieve equilibrium. After incubation, reactions were terminated by rapid vacuum filtration and processed for radioactivity, as detailed in Section 4.5.1.
(§2) Curve-fitting and all statistical analyses were performed using GraphPad Prism® v8.0g (GraphPad Software, Inc.; San Diego, CA, USA). For qRT-PCR experiments, a one-way ANOVA, followed by Dunnett’s test as a post hoc test was utilized to compare fold change of PC-3 and DU-145 cancer cells to an arbitrary value of 1, set to the amount of mRNA transcribed from a human normal prostate control. For CBR screening studies, a one-sample t-test was performed to determine differences from 100% (e.g., to quantify compounds producing displacement), followed by a one-way ANOVA and Tukey’s post hoc tests to compare displacement produced by all drugs. […] For LDH release, ATP-dependent cell viability and JC-1 staining assays, drug effects were first analyzed by a one-sample t-test to determine differences from 0 or 100% (vehicle), followed by a one-way ANOVA and Dunnett’s post hoc test to compare all means. […]

[2] = test system: canonical human CB1Rs (CHO-hCB1); design: method as in PMID 34592231; conditions: 1 μM ligand, 0.2 nM radioligand, CHO-hCB1 membranes; cited from earlier work
[3] = test system: canonical human CB2Rs (CHO-hCB2); design: method as in PMID 34592231; conditions: 1 μM ligand, 0.2 nM radioligand, CHO-hCB2 membranes; cited from earlier work
[4] = test system: canonical human CB2Rs (CHO-hCB2); design: method as in PMID 34592231; conditions: 1 μM ligand, 1 nM radioligand, CHO-hCB2 membranes; cited from earlier work
[5] = biological target: non-canonical CBRs expressed in DU-145; test: Homologous receptor binding, DU-145; design: species or system human; conditions: homologous competition with [^3H]WIN-55,212-2 (1 nM), read-out: affinity (KD)
Procedure: as §1, §2

[6] = test system: CBRs expressed in PC-12 cells; test: [^3H]CP-55,940 competitive binding screen, PC-12 membranes; design: species or system rat; conditions: 1 μM ligand, 0.2 nM radioligand
Procedure: (§3) The assay was conducted as previously detailed. […] All binding reactions were conducted in triplicate, in a final volume of 1 mL, and, following mixing, were incubated for 20 min in a 37 °C water bath to achieve equilibrium. After incubation, reactions were terminated by rapid vacuum filtration through Whatman GF/B glass fiber filters (Brandel; Gaithersburg, MD, USA), followed by three washes of 4 mls of ice-cold filtration buffer (50 mM Tris, pH 7.4, and 0.05% bovine serum albumin). Samples were punched out from filter papers into scintillation vials, to which 4 mls of ScintiverseTM-BDR cocktail scintillation fluid (Fisher Scientific; Hampton, NH, USA) was added. Filters were incubated at room temperature for 24 h in scintillation fluid, vortexed, and radioactivity (measured as DPMs) was quantified via a liquid scintillation spectrophotometer (Tri Carb 2100 TR Liquid Scintillation Analyzer, Packard Instruments, Meriden, CT, USA).

[7] = test system: CBRs expressed in C6-glioma cells; test: [^3H]CP-55,940 competitive binding screen, C6-glioma membranes; design: species or system mouse; conditions: 1 μM ligand, 0.2 nM radioligand
Procedure: as §3

[8] = test system: canonical human CB1Rs (CHO-hCB1); design: method as in PMID 34592231; conditions: 1 μM ligand, 1 nM radioligand, CHO-hCB1 membranes; cited from earlier work
[9] = test system: CBRs expressed in C6-glioma cells; test: [^3H]WIN-55,212-2 competitive binding screen, C6-glioma membranes; design: species or system mouse; conditions: 1 μM ligand, 1 nM radioligand
Procedure: as §3

SMILES: Cc1c(C(=O)c2cccc3ccccc23)c2cccc3c2n1[C@H](CN1CCOCC1)CO3 [WIN-55,212-2]
- Kd [1]: 7 ± 1.6 nM
- displacement of [^3H]CP-55,940 [2]: produced near or complete displacement
- displacement of [^3H]CP-55,940 [3]: produced near or complete displacement
- displacement of [^3H]WIN-55,212-2 (Figure 1B) [4]: produced near or complete displacement
- Kd [5]: 4.3 ± 0.89 nM
- displacement of [^3H]CP-55,940 [6]: neither the non-selective CBR ligand CP-55,940 nor WIN-55,212-2 produced significant displacement
- displacement of [^3H]CP-55,940 [7]: neither the non-selective CBR ligand CP-55,940 nor WIN-55,212-2 produced significant displacement
- displacement of [^3H]WIN-55,212-2 (Figure 1B) [8]: produced near or complete displacement
- displacement of [^3H]WIN-55,212-2 (Figure 1B) [9]: significantly displaced

From PMC8954350, “Non-Canonical Cannabinoid Receptors with Distinct Binding and Signaling Properties in Prostate and Other Cancer Cell Types Mediate Cell Death” (International Journal of Molecular Sciences, 2022)
